{"source": "patent US12241097B2", "about": "“Compositions and methods for adoptive cell therapy for cancer” (MEMORIAL SLOAN KETTERING CANCER CENTER, priority 2017, dated 2025)", "key": {"[1]": {"tested_on": "myeloid leukemia cell line SET2", "test": "cytotoxicity, SET2 (CellTitre Glo)", "format": "cell-based", "conditions": "unit inferred, read-out: IC50 (cell selectivity data), ceph-AMS"}, "SET2 cells [2]": {"tested_on": "SET2 cells", "test": "SET2 viability with ceph-AMS and Beta-lactamase supernatant", "format": "cell-based", "conditions": "comparable to AMS at around 100 nM"}, "primary T-cells": {"tested_on": "primary T-cells", "test": "in vitro cytotoxicity, primary T cells", "format": "cell-based, human"}, "Skov-3": {"tested_on": "Skov-3", "test": "cell viability, Skov-3", "format": "cell-based, human"}, "HEK293T": {"tested_on": "HEK293T", "test": "in vitro cytotoxicity, HEK293T", "format": "cell-based, human", "conditions": "HEK293-t; unit inferred; read-out: IC50 (cell selectivity data), ceph-AMS"}, "SET2 cells [3]": {"tested_on": "SET2 cells", "test": "SET2 viability with prodrug and supernatant from CPG2-secreting HEK293t cells", "format": "cell-based", "conditions": "comparable to AMS at around 100 nM", "protocol": "SET2 cells were exposed to increasing concentrations of AMS (square) or glut-AMS with media alone (− control, triangle) or supernatant from CPG2-secreting HEK293t cells (circle). Cell viability was measured by CellTitre-Glo® luminescence assay.\n(§1) The HA epitope tag permitted staining of surface-level CPG2 in cells expressing either the secreted or transmembrane forms of the enzyme (FIG. 22D). […] Cell viability was measured at 48 hours by CellTitre-Glo® luminescence."}, "Jurkat T cells [4]": {"tested_on": "Jurkat T cells", "test": "Jurkat viability with P-AMS and purified recombinant CPG2", "format": "cell-based, human", "conditions": "Jurkat viability at 48 hours", "protocol": "FIG. 4 provides exemplary data showing activation of P-AMS (see FIG. 2) by recombinant CPG2 expressed and purified from E. coli. (A) Human Jurkat T cells were incubated with or without P-AMS in the presence of increasing concentration of purified CPG2. Cell viability was measured at 48 hours by CellTitre-Glo luminescence. (B) Recombinant CPG2 was exposed to various concentrations of glutamated AMS prodrug. Following incubation at 37° C. (0.5, 1, 2, and 4 hr.), the reaction was combined with Amplex® Red (converts free glutamate to a fluorescent species) and fluorescent emission was analyzed using a fluorescence multiwell plate scanner.\nThe CPG2-pET151 vector was transformed into BL21 star E. coli cells and induced with IPTG. Bacteria were homogenized in a French Press and purified by affinity chromatography over Ni++ beads using standard protocols. Imidazole was exchanged via PBS dialysis and protein was purified via desalting spin columns. The expressed and purified CPG2 was assayed to confirm that the active enzyme was a potent converter of glutamated prodrugs. […] Pro-AMS was activated by recombinant CPG2 in vitro. Human Jurkat T cells were incubated with or without P-AMS in the presence of increasing concentration of purified CPG2. Cell viability of the Jurkat cells was measured at 48 hours by CellTitre-Glo® luminescence. […]"}, "Jurkat T cells [5]": {"tested_on": "Jurkat T cells", "test": "Jurkat viability with prodrug and supernatant from CPG2-secreting HEK293T cells", "format": "cell-based, human", "conditions": "for cell viability with CPG2 supernatant: 48 hours, control media did not", "protocol": "(§2) The in vitro cytotoxicity of AMS (structure 1c) and its prodrug variant (structure 1a) was tested against a variety of cell lines using a CellTitre Glo® assay (Promega, Madison, WI). […] Moreover, co-treatment with the prodrug and supernatant from CPG2-transfected HEK293T cells (see Example 3) led to cytotoxicity approaching that of the free drug (50 nM), consistent with CPG2-mediated cleavage of the prodrug to release the active parent drug. […] In contrast, AMS prodrug 1a was not activated by HEK293T cells expressing CPG intracellularly, which likely attributed to poor cell-penetrance of the prodrug due to the free bis-anionic gluatamate moiety.\nJurkat T cells were exposed to increasing concentrations of AMS (circle) or Pro-AMS with media alone (triangle) or supernatant from CPG2-secreting HEK293T cells (square). Cell viability was measured at 48 hours by CellTitre-Glo® luminescence assay.\nJurkat T cells were exposed to increasing concentrations of ZD2767P with media alone (triangle) or supernatant from CPG2-secreting HEK293T cells (square). Cell viability was measured at 48 hours by CellTitre-Glo® luminescence assay."}, "[6]": {"tested_on": "HEK293T cells expressing CPG2", "test": "viability of HEK293T cells expressing CPG2 variants exposed to prodrug", "format": "cell-based, human", "protocol": "as §2\nExpression of CPG2 without a signal peptide (CPG2nosigp) was employed as a control. HEK293t cells stably transfected with CPG2 variants were exposed to P-AMS ([…]) for 48 hours and analyzed by bright field microscopy (FIG. 9A). Cells were exposed to varying concentrations of P-AMS and cell viability was analyzed at 48 hr post treatment (FIG. 9B).\nas §1"}, "PC9 cells": {"tested_on": "PC9 cells", "test": "PC9 viability, CellTitre-Glo, 48 hours", "format": "cell-based, human", "protocol": "FIG. 14 provides exemplary data showing that Human T cells, but not cancer cells, are resistant to Erlotinib. (A) Human Jurkat T cells (red circle) and human non-small cell lung carcinoma cell lines PC9 (black square) and HCC827 (blue triangle) were treated with increasing concentrations of the receptor tyrosine kinase inhibitor Erlotinib. […] Cell viability was measured at 48 hours by CellTitre-Glo® luminescence.\nFIG. 14 provides exemplary data showing that Human T cells, but not cancer cells, are resistant to Erlotinib. Human Jurkat T cells, primary T cells and human non-small cell lung carcinoma cell lines PC9 and HCC827 were treated with increasing concentrations of the receptor tyrosine kinase inhibitor Erlotinib. […] PC9 cells were incubated in the presence of Erlotinib, P-Erlotinib, or P-Erlotinib in the presence of purified CPG2. Cell viability was measured at 48 hours by CellTitre-Glo® luminescence."}, "[7]": {"tested_on": "lung adenocarcinoma cells (HCC827)", "test": "coculture of 293t^CPGTM cells with HCC827 plus erlotinib prodrug", "format": "cell-based", "conditions": "120 hr, flow cytometry", "protocol": "FIG. 15 provides exemplary data showing the pro-drug activity of 293T cells expressing transmembrane CPG2. GFP+293t^CPGTM cells were co-cultured with lung adenocarcinoma cells (HCC827) at various ratios (293t^CPGTM:HCC827) and the erlotinib prodrug (p-erlotinib) was added. (A) Cells were analyzed at 120 hour by flow cytometry and % GFP was calculated. (B) Ratio of 293t^CPGTM cells to HCC827 cells was calculated for each cell ratio.\nThe retroviral constructs encoding the anti-CD19 CAR and transmembrane CPG2 enzyme described above were transduced into 293T cells to test the conversion activity of transmembrane CPG2 for an Erlotinib prodrug. GFP+293t^CPGTM cells were co-cultured with lung adenocarcinoma cells (HCC827) at various ratios (293t^CPGTM:HCC827) and the erlotinib prodrug (p-erlotinib) was added. Cells were analyzed at 120 hr. by flow cytometry (FIG. 15A) and the percentage of GFP cells and the ratio of 293t^CPGTM cells to HCC827 cells was calculated for each cell ratio (FIG. 15B)."}, "Jurkat (T cell)": {"tested_on": "Jurkat (T cell)", "test": "in vitro cytotoxicity, Jurkat", "format": "cell-based, human", "conditions": "T cell lines (Jurkat)"}, "HCC827": {"tested_on": "HCC827", "test": "HCC827 viability with Erlotinib", "format": "cell-based, human", "experimental": "Human Jurkat T cells, primary T cells and human non-small cell lung carcinoma cell lines PC9 and HCC827 were treated with increasing concentrations of the receptor tyrosine kinase inhibitor Erlotinib. […] Cell viability was measured at 48 hours by CellTitre-Glo® luminescence."}}, "data": [{"smiles": "Nc1ncnc2c1ncn2[C@@H]1O[C@H](COS(=O)(=O)NCC2=C(C(=O)O)N3C(=O)[C@@H](NC(=O)Cc4cccs4)[C@H]3SC2)[C@@H](O)[C@H]1O", "note": "[ceph-AMS]", "values": [{"measurement": "IC50", "setting": "[1]", "result": "~2200", "unit": "nM"}, {"measurement": "cell viability with Beta-lactamase supernatant", "setting": "SET2 cells [2]", "result": "significant decrease in cell viability"}, {"measurement": "IC50", "setting": "primary T-cells; Human T cell, unit inferred, read-out: IC50 (cell selectivity data), ceph-AMS", "result": "> 1250", "unit": "nM"}, {"measurement": "Selective Index", "setting": "Skov-3", "result": 3.6}, {"measurement": "IC50", "setting": "Skov-3; unit inferred, read-out: IC50 (cell selectivity data), ceph-AMS", "result": "> 1250", "unit": "nM"}, {"measurement": "IC50", "setting": "HEK293T", "result": 2000, "unit": "nM"}]}, {"smiles": "NS(=O)(=O)OC[C@H]1O[C@@H](n2cnc3c(NC(=O)N[C@@H](CCC(=O)O)C(=O)O)ncnc32)[C@H](O)[C@@H]1O", "note": "[P-AMS, ((9-((2R,3R,4S,5R)-3,4-dihydroxy-5-((sulfamoyloxy)methyl)tetrahydrofuran-2-yl)-9H-purin-6-yl)carbamoyl)-L-glutamic Acid]", "values": [{"measurement": "cell viability with CPG2 supernatant", "setting": "SET2 cells [3]", "result": "significant decrease in cell viability"}, {"measurement": "activation by recombinant CPG2", "setting": "Jurkat T cells [4]", "result": "activated"}, {"measurement": "cell viability with CPG2 supernatant", "setting": "Jurkat T cells [5]", "result": "significant decrease in cell viability"}, {"measurement": "IC50", "setting": "Jurkat T cells [5]; Homo sapiens, with CPG2 supernatant, read-out: IC50, co-treatment with supernatant from CPG2-transfected HEK293T cells", "result": 50, "unit": "nM"}, {"measurement": "cell death of HEK293T cells expressing CPG2", "setting": "[6]; cell-secreted and transmembrane CPG2, 48 hours, control construct did not", "result": "significant cell death"}, {"measurement": "activation by HEK293T cells expressing CPG intracellularly", "setting": "[6]; intracellular CPG", "result": "not activated"}]}, {"smiles": "C#Cc1cccc(N(Cc2ccc(NC(=O)N[C@@H](CCC(=O)O)C(=O)O)cc2)c2ncnc3cc(OCCOC)c(OCCOC)cc23)c1", "note": "[P-Erlotinib]", "values": [{"measurement": "toxicity of prodrug alone", "setting": "PC9 cells; PC9, 1 μM, 48 hours", "result": "no toxicity"}, {"measurement": "activity of prodrug cleaved by purified CPG2", "setting": "PC9 cells; PC9, with purified CPG2", "result": "comparable activity to the active drug"}, {"measurement": "killing after conversion by transmembrane CPG2", "setting": "[7]", "result": "kills the target cancer cell"}]}, {"smiles": "C#Cc1cccc(Nc2ncnc3cc(OCCOC)c(OCCOC)cc23)c1", "note": "[Erlotinib, reference compound]", "values": [{"measurement": "response to increasing concentrations", "setting": "Jurkat (T cell)", "result": "resistance"}, {"measurement": "cell death with increasing concentrations", "setting": "HCC827", "result": "significant cell death"}, {"measurement": "cell death with increasing concentrations", "setting": "PC9 cells; PC9", "result": "significant cell death"}, {"measurement": "response to increasing concentrations", "setting": "primary T-cells; primary T cells", "result": "resistance"}]}, {"smiles": "O=C(O)CC[C@H](NC(=O)Oc1ccc(N(CCI)CCI)cc1)C(=O)O", "note": "[ZD2767P, reference compound]", "values": [{"measurement": "cell viability with CPG2 supernatant", "setting": "Jurkat T cells [5]", "result": "significant decrease in cell viability"}]}]}
